From patent US20200236940A1, “2-(HET)ARYL-SUBSTITUTED FUSED HETEROCYCLE DERIVATIVES AS PESTICIDES” (Bayer Aktiengesellschaft, priority 2017, published 2020)

Columns and labels:
Type in all cases: in vivo
Boophilus microplus = Boophilus microplus injection test; details: application rate 20 μg/animal, after 7 days, laying of fertile eggs
Method: Boophilus microplus—Injection Test Solvent: dimethyl sulfoxide To produce a suitable active ingredient formulation, 10 mg of active ingredient are mixed with 0.5 ml of solvent and the concentrate is diluted to the desired concentration with solvent. 1 μl of the active ingredient solution is injected into the abdomen of 5 engorged adult female cattle ticks (Boophilus microplus). The animals are transferred into dishes and kept in a climate-controlled room. Efficacy is assessed after 7 days by laying of fertile eggs. Eggs which are not visibly fertile are stored in a climate-controlled cabinet until the larvae hatch after about 42 days. An efficacy of 100% means that none of the ticks has laid any fertile eggs; 0% means that all the eggs are fertile.

Ctenocephalides felis [1] = assay: Ctenocephalides felis oral test; details: application rate 100 ppm, after 2 days
Method: Ctenocephalides felis—Oral Test Solvent: dimethyl sulfoxide To produce a suitable active ingredient formulation, 10 mg of active ingredient are mixed with 0.5 ml of dimethyl sulfoxide. Dilution with citrated cattle blood gives the desired concentration. About 20 unfed adult cat fleas (Ctenocephalides felis) are placed into a chamber which is closed at the top and bottom with gauze. A metal cylinder whose bottom end is closed with parafilm is placed onto the chamber. The cylinder contains the blood/active ingredient formulation, which can be imbibed by the fleas through the parafilm membrane. After 2 days, the kill in % is determined. 100% means that all of the fleas have been killed; 0% means that none of the fleas have been killed.

Lucilia cuprina = Lucilia cuprina test; details: after 2 days, L1 larvae
Method: Lucilia cuprina Test Solvent: dimethyl sulfoxide To produce a suitable active ingredient formulation, 10 mg of active ingredient are mixed with 0.5 ml of dimethyl sulfoxide, and the concentrate is diluted with water to the desired concentration. About 20 L1 larvae of the Australian sheep blowfly (Lucilia cuprina) are transferred into a test vessel containing minced horsemeat and the active ingredient formulation of the desired concentration. After 2 days, the kill in % is determined. 100% means that all the larvae have been killed; 0% means that no larvae have been killed.

Musca domestica = Musca domestica test; details: application rate 100 ppm, after 2 days, adult houseflies
Method: Musca domestica Test Solvent: dimethyl sulfoxide To produce a suitable active ingredient formulation, 10 mg of active ingredient are mixed with 0.5 ml of dimethyl sulfoxide, and the concentrate is diluted with water to the desired concentration. Vessels containing a sponge treated with sugar solution and the desired concentration of active ingredient formulation are populated with 10 adult houseflies (Musca domestica). After 2 days, the kill in % is determined. 100% means that all the flies were killed; 0% means that no flies were killed.

Myzus persicae [2] = assay: Myzus persicae oral test; details: 120 h, application rate 4 ppm, after 5 days, read-out: efficacy
Method: Myzus persicae—Oral Test Solvent: 100 parts by weight of acetone To produce a suitable active ingredient formulation, 1 part by weight of active ingredient is dissolved with the stated parts by weight of solvent and made up to the desired concentration with water. 50 μl of the active ingredient formulation are transferred into microtitre plates and made up to a final volume of 200 μl with 150 μl of IPL41 insect medium (33%+15% sugar). Subsequently, the plates are sealed with parafilm, which a mixed population of green peach aphids (Myzus persicae) within a second microtitre plate is able to puncture and imbibe the solution. After 5 days, the efficacy in % is determined. 100% means that all the aphids have been killed; 0% means that no aphids have been killed.

Myzus persicae [3] = assay: Myzus persicae spray test (MYZUPE), Chinese cabbage leaf discs; details: foliar, 120 h
Method: Myzus persicae—Spray Test [table] To produce a suitable active ingredient formulation, 1 part by weight of active ingredient is dissolved with the specified parts by weight of solvent and made up to the desired concentration with water containing an emulsifier concentration of 1000 ppm. To produce further test concentrations, the formulation is diluted with emulsifier-containing water. Discs of Chinese cabbage leaves (Brassica pekinensis) infested by all stages of the green peach aphid (Myzus persicae) are sprayed with an active ingredient formulation of the desired concentration. After 5 days, the efficacy in % is determined. 100% means that all the aphids have been killed; 0% means that no aphids have been killed. Myzus persicae—Spray Test (MYZUPE) [table] To produce a suitable active ingredient formulation, 1 part by weight of active ingredient is dissolved with the specified parts by weight of solvent and made up to the desired concentration with water containing an emulsifier concentration of 1000 ppm. To produce further test concentrations, the formulation is diluted with emulsifier-containing water. Discs of Chinese cabbage leaves (Brassica pekinensis) infested by all stages of the green peach aphid (Myzus persicae) are sprayed with an active ingredient formulation of the desired concentration. After the desired period of time, the efficacy in % is determined. 100% means that all the aphids have been killed; 0% means that no aphids have been killed.

Phaedon cochleariae [4] = assay: Phaedon cochleariae spray test, Chinese cabbage leaf discs; details: foliar, 168 h, application rate 100 g/ha, after 7 days, larvae, read-out: efficacy
Method: Phaedon cochleariae—Spray Test
(§1) To produce a suitable active ingredient formulation, 1 part by weight of active ingredient is dissolved with the specified parts by weight of solvent and made up to the desired concentration with water containing an emulsifier concentration of 1000 ppm. To produce further test concentrations, the formulation is diluted with emulsifier-containing water.
After 7 days, the efficacy in % is determined. 100% means that all the beetle larvae have been killed; 0% means that no beetle larvae have been killed.

Ctenocephalides felis [5] = assay: Ctenocephalides felis in vitro contact test with adult cat fleas; details: application rate 5 μg/cm^2 (=500 g/ha), after 48 h
Method: Ctenocephalides felis—In Vitro Contact Tests with Adult Cat Fleas For the coating of the test tubes, 9 mg of active ingredient are first dissolved in 1 ml of acetone p.a. and then diluted to the desired concentration with acetone p.a. 250 μl of the solution are distributed homogeneously on the inner walls and the base of a 25 ml glass tube by turning and rocking on an orbital shaker (rocking rotation at 30 rpm for 2 h). With 900 ppm of active ingredient solution and internal surface area 44.7 cm^2, given homogeneous distribution, an area-based dose of 5 μg/cm^2 is achieved. After the solvent has evaporated off, the tubes are populated with 5-10 adult cat fleas (Ctenocephalides felis), sealed with a perforated plastic lid and incubated in a horizontal position at room temperature and ambient humidity. After 48 h, efficacy is determined. To this end, the tubes are stood upright and the fleas are knocked to the base of the tube. Fleas which remain motionless at the base or move in an uncoordinated manner are considered to be dead or moribund. […] 100% efficacy means that all the fleas were dead or moribund. 0% efficacy means that no fleas were harmed.

Myzus persicae [6] = assay: Myzus persicae spray test, bell pepper plants; details: application rate 20 ppm, after 6 days
Method: Myzus persicae—Spray Test Solvent: 14 parts by weight of dimethylformamide Emulsifier: alkylaryl polyglycol ether To produce a suitable active ingredient formulation, 1 part by weight of active ingredient is dissolved with the specified parts by weight of solvent and made up to the desired concentration with water containing an emulsifier concentration of 1000 ppm. To produce further test concentrations, the formulation is diluted with emulsifier-containing water. If the addition of ammonium salts or/and penetrants is required, these are each added in a concentration of 1000 ppm to the formulation solution. Bell pepper plants (Capsicum annuum) severely infested with the green peach aphid (Myzus persicae) are treated by spraying with the active ingredient formulation in the desired concentration. After 6 days, the kill in % is determined. 100% means that all of the aphids have been killed; 0% means that none of the aphids have been killed.

Nilaparvata lugens = Nilaparvata lugens spray test (NILALU); details: 96 h, 4 dat, read-out: % efficacy
Method: Nilaparvata lugens—Spray Test (NILALU)
as §1, with “water. If the addition of ammonium salts or/and penetrants is required, these are each added in a concentration of 1000 ppm to the formulation solution.” for “water.”
Rice plants (Oryza sativa) are sprayed with an active ingredient formulation of the desired concentration and then populated with larvae of the brown planthopper (Nilaparvata lugens).
[…], the efficacy in % is determined. 100% means that all of the planthoppers have been killed; 0% means that none of the planthoppers have been killed.

Spodoptera frugiperda [7] = assay: Spodoptera frugiperda drench test (SPODFR D); details: soil, 336 h, 14 dat, read-out: % efficacy
Method: Spodoptera frugiperda—Drench Test (SPODFR D) [table] To produce a suitable active ingredient formulation, 1 part by weight of active ingredient is mixed with the specified amounts of solvent and emulsifier, and the concentrate is diluted with water to the desired concentration, it being necessary to take into account the volume of soil which is drenched. It should be ensured that a concentration of 40 ppm of emulsifier in the soil is not exceeded. To produce further test concentrations, water is used for dilution. Maize plants (Zea mays) in pots of soil are watered with an active ingredient formulation of the desired concentration and infected with caterpillars of the armyworm (Spodoptera frugiperda). After the desired time, the kill in % is determined. 100% means that all caterpillars have been killed; 0% means that none of the caterpillars have been killed.

Spodoptera frugiperda [8] = assay: Spodoptera frugiperda spray test (SPODFR S), cotton leaves; details: 168 h, 7 dat, read-out: % efficacy
Method: Spodoptera frugiperda—Spray Test (SPODFR S) Solvent: 14 parts by weight of dimethylformamide Emulsifier: alkylaryl polyglycol ether To produce a suitable active ingredient formulation, 1 part by weight of active ingredient is dissolved with the specified parts by weight of solvent and made up to the desired concentration with water containing an emulsifier concentration of 1000 ppm. To produce further test concentrations, the formulation is diluted with emulsifier-containing water. If the addition of ammonium salts or/and penetrants is required, these are each added in a concentration of 1000 ppm to the formulation solution. Cotton leaves (Gossypium hirsutum) are sprayed with an active ingredient formulation of the desired concentration and populated with caterpillars of the armyworm (Spodoptera frugiperda). After the desired time, the kill in % is determined. 100% means that all caterpillars have been killed; 0% means that none of the caterpillars have been killed.

Nezara viridula = Nezara viridula spray test; details: 96 h, NEZAVI, 500 g of ai/ha, 4 dat, read-out: % efficacy
Method: Nezara viridula—Spray Test [table] To produce a suitable active ingredient formulation, 1 part by weight of active ingredient is dissolved with the specified parts by weight of solvent and made up to the desired concentration with water containing an emulsifier concentration of 1000 ppm. To produce further test concentrations, the formulation is diluted with emulsifier-containing water. If the addition of ammonium salts or/and penetrants is required, these are each added in a concentration of 1000 ppm to the formulation solution. Barley plants (Hordeum vulgare) infected with larvae of the Southern green shield bug (Nezara viridula) are sprayed with an active ingredient formulation of the desired concentration. After the desired period of time, the efficacy in % is determined. 100% means that all of the shield bugs have been killed; 0% means that none of the shield bugs have been killed.

Phaedon cochleariae [9] = assay: Phaedon cochleariae spray test (PHAECO), cabbage leaves; details: 168 h, 7 dat, read-out: % efficacy
Method: Phaedon cochleariae—Spray Test (PHAECO)
Solvent: 14 parts by weight of dimethylformamide
Emulsifier: alkylaryl polyglycol ether
as §1, with “water. If the addition of ammonium salts or/and penetrants is required, these are each added in a concentration of 1000 ppm to the formulation solution.” for “water.”
Cabbage leaves (Brassica oleracea) are sprayed with an active ingredient formulation of the desired concentration and populated with larvae of the mustard beetle (Phaedon cochleariae).
After the desired time, the kill in % is determined. 100% means that all the beetle larvae have been killed; 0% means that no beetle larvae have been killed.

SMILES	efficacy (Boophilus microplus) [%]	efficacy (kill) (Ctenocephalides felis [1]) [%]	efficacy (kill) (Lucilia cuprina; application rate 100 ppm) [%]	efficacy (kill) (Musca domestica) [%]	pest or weed control at 4 ppm (Myzus persicae [2]) [%]	pest or weed control at 20 g/ha (Myzus persicae [3]; application rate 20 g/ha, after 5 days, read-out: efficacy) [%]	pest or weed control at 100 g/ha (Phaedon cochleariae [4]) [%]	efficacy (Ctenocephalides felis [5]) [%]	efficacy (kill) (Lucilia cuprina; application rate 20 ppm) [%]	Emax at 4 g/ha (Myzus persicae [3]; MYZUPE, 4 g of ai/ha, 5 dat, read-out: % efficacy) [%]	efficacy (kill) (Myzus persicae [6]) [%]	Emax at 20 g/ha (Myzus persicae [3]; MYZUPE, 20 g of ai/ha, 5 dat, read-out: % efficacy) [%]	Emax at 100 g/ha (Myzus persicae [3]; MYZUPE, 100 g of ai/ha, 5 dat, read-out: % efficacy) [%]	Emax at 100 g/ha (Nilaparvata lugens; 100 g of ai/ha) [%]	Emax at 500 g/ha (Nilaparvata lugens; 500 g of ai/ha) [%]	Emax at 20 ppm (Spodoptera frugiperda [7]) [%]	Emax at 4 ppm (Spodoptera frugiperda [8]) [%]	Emax at 500 g/ha (Nezara viridula) [%]	Emax at 0.8 ppm (Phaedon cochleariae [9]) [%]
CCS(=O)(=O)c1ccc(-n2cncn2)nc1-c1nc2cc(C(F)(F)F)nc(C)c2n1C [Example I-003]	100	100	100	100	100	90	83												
CCS(=O)(=O)c1ccc(-n2ccnn2)nc1-c1nc2cc(C(F)(F)F)nc(C)c2n1C [Example I-013]		100	100	100	100		83	100	80	70	100								
CCS(=O)(=O)c1ccc(-n2ncn(-c3ccc(Cl)cc3)c2=O)nc1-c1nc2cc(C(F)(F)F)ncc2n1C [Prior art WO 2017/055185 (Ex. I-19), reference compound]												0	0	0	0	0	35	0	70
